Marks after values point to notes of the source that are not given here. Where no end group is shown, it is not given here.
Columns and labels:
Brain tumor cells = test: MTT proliferation inhibition, brain tumor cells; type: cell-based, human; set-up: concentration or dose not given beside the values; settings: 48 h
Experimental: (§1) The activity of mPEG-HM-1 to inhibit the growth of various tumor cells was examined by MTT assay. The tumor cells were cultured to a concentration of 90% or more in a 37° C., 5% CO2 incubator and collected by trypsinization. The cells were resuspended in the culture medium and counted under a microscope to adjust the cell concentration to 2×10^4 cells/mL, the cell suspension was inoculated into a 96-well plate at 100 μL/well and incubated overnight at 37° C. in a 5% CO2 incubator. mPEG-HM-1 was diluted with the culture solution to each predetermined concentration. Docetaxel is diluted to the final concentration with the culture medium. After the cells were fully attached, each dilution was added to a 96-well plate (100 μL/well). The mPEG-HM-1 dilution was added as a drug-administered group, and docetaxel was added as a positive control group, and a culture solution without any drug was used as a negative control group. Incubate for 48 h at 37° C. in a 5% CO2 incubator. 5 mg/mL of MTT was added to a 96-well plate at 20 μL per well, and incubation was continued for 4 hours. The medium was aspirated, dissolved in 150 μL of DMSO per well, and gently mixed by shaking for 10 min. The absorbance was measured at a measurement wavelength of 570 nm and a reference wavelength of 630 nm using a microplate reader, and the rate of growth inhibition (proliferation inhibition, PI) was calculated. The formula is as follows: PI (%)=1−administration group/negative group
(§2) The test was repeated 3 times independently, and the results obtained by the test were expressed as mean±SD, and the test results are shown in Table 15 to Table 18.

[1] = system: Colorectal cancer tumor cells; test: MTT proliferation inhibition, colorectal cancer cells; type: cell-based, human; set-up: concentration or dose not given beside the values; settings: 48 h
Experimental: as §1, §2

[2] = system: Prostate cancer tumor cells; test: MTT proliferation inhibition, prostate cancer cells; type: cell-based, human; set-up: concentration or dose not given beside the values; settings: 48 h
Experimental: as §1, §2

[3] = system: carrageenan-induced toe swelling in SD rats; test: Carrageenan-induced acute toe swelling in rats; type: in vivo, rat; set-up: Swelling: unit not given here; settings: for inhibition of carrageenan-induced toe swelling (in words): rats, once a day for 3 days
Experimental: SD rats were divided into blank model group, dexamethasone-positive group (5 mg/kg) and mPEG-HM-1 test group. The drug was administered once a day, and the model group was given the same volume of normal saline for 3 days and fed normally. At the first hour after the last administration, 0.1 mL of 1% carrageenan was injected subcutaneously into the right hind paw of the rats to induce inflammation. The volume of the foot was measured at 1 h, 3 h, 5 h, and 7 h after inflammation. The degree of swelling of the foot was calculated according to the following formula: the degree of swelling of the foot (mL)=the volume of the foot after inflammation−the volume before inflammation. Record the number of milliliters of spilled liquid (method: use the ballpoint pen to circle as the measurement mark at the protruding point of the right joint, and then put the right hind foot of each mouse into the volume measuring device, so that the hind limb is exposed outside the cylinder, and the depth of the immersion was determined by coinciding the circle with the liquid surface. After the foot enters the liquid, the liquid level rises, and the volume of the overflow liquid is the volume of the right hind foot of the rat, and the normal volume of the right hind foot of each mouse is sequentially determined).

[4] = system: Esophageal cancer tumor cells; test: MTT proliferation inhibition, esophageal cancer cells; type: cell-based, human; set-up: concentration or dose not given beside the values; settings: 48 h
Experimental: as §1, §2

[5] = system: Human Umbilical Vein Endothelial Cells (HUVEC); test: Transwell migration of HUVEC; type: cell-based; settings: 24 h
Experimental: 10 mg/mL Matrigel was diluted 1:2 with HUVEC-specific medium, spread on a transwell chamber membrane, and air-dried at room temperature. HUVEC cells cultured in logarithmic growth phase were digested with trypsin digest, collected, washed twice with PBS, and resuspended in blank HUVECs-specific medium. The cells were counted under a microscope, and the cell concentration was adjusted to 1×10^5/mL. The test solutions of each group were prepared and diluted to 100 μL with a blank HUVECs-specific medium. The cells were seeded into a transwell chamber at 100 μL per well, and each set of test solution was added to the chamber. The cell culture was stimulated by adding 0.6 mL of endothelial cell culture medium containing 5% fetal bovine serum and 1% ECGS into a 24-well plate, and cultured at 5% CO2 for 24 hour at 37° c. Discard the culture medium in the well, fix it with 90% alcohol at room temperature for 30 minutes, 0.1% crystal violet for 10 min at room temperature, rinse with water, gently wipe off the unsprayed cells in the upper layer with a cotton swab, observe under microscope and select four fields to take pictures. Calculate migration inhibition (MI) according to the formula: […]
Ntest was the number of cell migration in the test group, and Ncontrol was the number of cell migration in the blank control group.
The test was repeated 3 times independently. The results obtained from the test were calculated as mean±SD, and a statistical T test was performed. *P<0.05 was a significant difference, and **P<0.01 was a very significant difference.

[6] = system: Breast cancer tumor cells; test: MTT proliferation inhibition, breast cancer cells; type: cell-based, human; set-up: concentration or dose not given beside the values; settings: 48 h
Experimental: as §1, §2

[7] = system: collagen induced arthritis (CIA) in DBA/1 mice; test: Collagen-induced mouse arthritis (CIA) model; type: in vivo; settings: for Joint swelling / Left and right paw swelling / Clinical score: CIA DBA/1 mice; for Clinical score: maximum score 16; for limbs score (in words): CIA mice, subcutaneous, once every three days, vs model control group
Hemangioma tumor cells = test: MTT proliferation inhibition, hemangioma cells; type: cell-based, human; set-up: concentration or dose not given beside the values; settings: 48 h
Experimental: as §1, §2

[8] = 40 mg/kg once a day for 3 days, 1 h after carrageenan
[9] = 40 mg/kg once a day for 3 days, 3 h after carrageenan
[10] = 40 mg/kg once a day for 3 days, 5 h after carrageenan
[11] = 40 mg/kg once a day for 3 days, 7 h after carrageenan
[12] = 40 mg/kg subcutaneous from day 30 of modeling
[13] = 20 mg/kg subcutaneous from day 30 of modeling

Substance | rate of growth inhibition (Brain tumor cells) [%] | rate of growth inhibition [1] [%] | rate of growth inhibition [2] [%] | Swelling [3, 8] | Swelling [3, 9] | Swelling [3, 10] | Swelling [3, 11] | rate of growth inhibition [4] [%] | inhibition rate of HUVEC migration ([5]; 80 μg/mL) | inhibition rate of HUVEC migration ([5]; 90 μg/mL) | rate of growth inhibition [6] [%] | Joint swelling [7, 12] [mm] | Left and right paw swelling [7, 12] [mm] | Clinical score [7, 12] | rate of growth inhibition (Hemangioma tumor cells) [%] | inhibition of carrageenan-induced toe swelling (in words) ([3]; 40 mg/kg) | cell migration number (Mean ± SD) ([5]; 50 μg/mL) | inhibition rate of HUVEC migration ([5]; 50 μg/mL) [%*] | cell migration number (Mean ± SD) ([5]; 60 μg/mL) | inhibition rate of HUVEC migration ([5]; 70 μg/mL) | further results
mPEG-bALD20k-Arg-Gly-Ala-Asp-Arg-Ala-Gly-Gly-Gly-Gly-Arg-Gly-Asp ({mPEG‑bALD 20 kDa}-RGADRAGGGGRGD) [mPEG-bALD20k-HM-1] | 54.77 ± 13.43 | 70.73 ± 16.92 | 46.90 ± 11.54 | 0.25 ± 0.15 | 0.35 ± 0.14 | 0.42 ± 0.15 | 0.36 ± 0.18 | 60.56 ± 14.72 | 55.68% | 53.82% | 60.97 ± 16.29 | 0.73 ± 0.15 | 0.75 ± 0.11 | 8.67 ± 1.32 | 50.31 ± 14.00 | – | – | – | – | – | –
mPEG-bALD10k-Arg-Gly-Ala-Asp-Arg-Ala-Gly-Gly-Gly-Gly-Arg-Gly-Asp ({mPEG‑bALD 10 kDa}-RGADRAGGGGRGD) [mPEG-bALD10k-HM-1] | 59.37 ± 14.52 | 75.62 ± 18.03 | 50.02 ± 10.65 | – | – | – | – | 64.92 ± 12.17 | – | 53.82%** | 68.15 ± 15.87 | – | – | – | 55.28 ± 12.30 | most effective | 589.97 ± 56.24 | 45.98 | 483.16 ± 50.26 | 60.38%** | inhibition rate of HUVEC migration ([5]; 60 μg/mL): 55.76%; cell migration number (Mean ± SD) ([5]; 90 μg/mL): 504.35 ± 48.36; cell migration number (Mean ± SD) ([5]; 100 μg/mL): 568.57 ± 56.90; inhibition rate of HUVEC migration ([5]; 100 μg/mL): 47.94%*; Joint swelling [7, 13]: 0.74 ± 0.12 mm; Left and right paw swelling [7, 13]: 0.71 ± 0.12 mm; Clinical score [7, 13]: 8.69 ± 1.38; limbs score (in words) [7]: significantly lower than that of the model control group
mPEG-SC20k-Arg-Gly-Ala-Asp-Arg-Ala-Gly-Gly-Gly-Gly-Arg-Gly-Asp ({mPEG‑SC 20 kDa}-RGADRAGGGGRGD) [mPEG-SC20k-HM-1] | 55.56 ± 12.13 | 66.19 ± 20.58 | 49.35 ± 10.04 | 0.28 ± 0.14 | 0.35 ± 0.17 | 0.42 ± 0.15 | 0.37 ± 0.16 | 55.51 ± 16.22 | 52.93% | 60.87% | 52.18 ± 18.28 | 0.76 ± 0.12 | 0.72 ± 0.15 | 9.00 ± 1.25 | 55.63 ± 18.30 | – | – | – | – | 43.74%* | Swelling ([3]; 80 mg/kg once a day for 3 days, 1 h after carrageenan): 0.26 ± 0.10; Swelling ([3]; 80 mg/kg once a day for 3 days, 3 h after carrageenan): 0.33 ± 0.12; Swelling ([3]; 80 mg/kg once a day for 3 days, 5 h after carrageenan): 0.40 ± 0.13; Swelling ([3]; 80 mg/kg once a day for 3 days, 7 h after carrageenan): 0.32 ± 0.17; inhibition of carrageenan-induced toe swelling (in words) ([3]; 80 mg/kg): most effective; cell migration number (Mean ± SD) ([5]; 70 μg/mL): 596.77 ± 50.58; cell migration number (Mean ± SD) ([5]; 80 μg/mL): 499.29 ± 50.26; cell migration number (Mean ± SD) ([5]; 90 μg/mL): 415.07 ± 46.74; cell migration number (Mean ± SD) ([5]; 100 μg/mL): 559.75 ± 52.94; inhibition rate of HUVEC migration ([5]; 100 μg/mL): 47.23%*; limbs score (in words) [7]: significantly lower than that of the model control group
mPEG2-NHS10k-Arg-Gly-Ala-Asp-Arg-Ala-Gly-Gly-Gly-Gly-Arg-Gly-Asp ({mPEG2‑NHS 10 kDa}-RGADRAGGGGRGD) [mPEG2-NHS10k-HM-1] | 47.62 ± 11.11 | 55.78 ± 15.77 | 42.39 ± 12.65 | 0.21 ± 0.10 | 0.31 ± 0.17 | 0.35 ± 0.11 | 0.33 ± 0.15 | 48.12 ± 12.85 | 45.69%* | – | 50.92 ± 13.97 | – | – | – | 48.81 ± 12.46 | most effective | 603.97 ± 40.36 | 41.74 | 506.83 ± 46.25 | 60.40% | Swelling ([3]; 20 mg/kg once a day for 3 days, 1 h after carrageenan): 0.24 ± 0.12; Swelling ([3]; 20 mg/kg once a day for 3 days, 3 h after carrageenan): 0.37 ± 0.16; Swelling ([3]; 20 mg/kg once a day for 3 days, 5 h after carrageenan): 0.42 ± 0.16; Swelling ([3]; 20 mg/kg once a day for 3 days, 7 h after carrageenan): 0.30 ± 0.12; inhibition rate of HUVEC migration ([5]; 60 μg/mL): 51.11%; cell migration number (Mean ± SD) ([5]; 70 μg/mL): 410.53 ± 48.64; cell migration number (Mean ± SD) ([5]; 80 μg/mL): 563.02 ± 56.22; Joint swelling [7, 13]: 0.75 ± 0.15 mm; Left and right paw swelling [7, 13]: 0.74 ± 0.14 mm; Clinical score [7, 13]: 8.83 ± 1.32

Source: patent publication US10869931B2, “Polyethylene glycol-modified angiogenesis inhibitor HM-1 and application thereof” (NANJING ANJI BIOLOGICAL TECHNOLOGY CO.,LTD, priority 2016, dated 2020)
